Measured values taken from ChEMBL document CHEMBL1255445, “Evaluation of nucleoside hydrolase inhibitors for treatment of African trypanosomiasis” (Antimicrob Agents Chemother, 2010).
Calls of active or inactive are those of the source. The rule behind the calls is not given here.

How the values were obtained:
[1] = Inhibition of Trypanosoma vivax Inosine-adenosine-guanosine-nucleoside hydrolase
[2] = system: Trypanosoma brucei brucei; assay: Antitrypanosomal activity against suramin sensitive Trypanosoma brucei brucei Lister 427 assessed as reduction in parasite growth after 3 days by fluorometrically; assay type: functional, organism-based; details: Lister 427, 72 h
[3] = system: Trypanosoma cruzi; assay: Antitrypanosomal activity against Trypanosoma cruzi Tulahuen CL2 s-galactosidase strain assessed as reduction in parasite growth after 3 days by fluorometrically; assay type: functional, organism-based
[4] = system: Leishmania infantum; assay: Antileishmanial activity against Leishmania infantum MHOM/MA/67/ITMAP263 intracellular amastigotes assessed as reduction in parasite growth after 3 days by fluorometrically; assay type: functional, organism-based
[5] = system: Plasmodium falciparum; assay: Antiparasitic activity against chloroquine-sensitive Plasmodium falciparum Ghana assessed as reduction in parasite growth after 3 days by fluorimetry; assay type: functional, organism-based
[6] = Inhibition of human purine nucleoside phosphorylase

| SMILES | Ki [1] | IC50 [2] | Ki [6] | Activity [3] | Activity [4] | Activity [5] |
| --- | --- | --- | --- | --- | --- | --- |
| N=C(N)Nc1ccc(CN2C[C@H](O)[C@H](O)[C@H]2CO)cc1 | 7 µM | > 64 µM | – | inactive | inactive | inactive |
| Nc1ccnc2c(CN3C[C@H](O)[C@H](O)[C@H]3CO)cccc12 | 0.05 µM | > 64 µM | > 1000 µM | inactive | inactive | inactive |
| Cn1c(CN2C[C@H](O)[C@H](O)[C@H]2CO)nc2ccccc21 | 2.1 µM | – | – | inactive | inactive | inactive |
| COc1ccc(CN2C[C@H](O)[C@H](O)[C@H]2CO)cn1 | 32 µM | > 64 µM | – | inactive | inactive | inactive |
| OC[C@@H]1[C@@H](O)[C@@H](O)CN1CCc1c[nH]c2ccccc12 | 9.5 µM | 31 µM | – | inactive | inactive | inactive |
| COc1cccc2c(CN3C[C@H](O)[C@H](O)[C@H]3CO)c[nH]c12 | 2.3 µM | > 64 µM | > 400 µM | inactive | inactive | inactive |
| Cn1nnc2cc(CN3C[C@H](O)[C@H](O)[C@H]3CO)ccc21 | 0.72 µM | > 64 µM | – | inactive | inactive | inactive |
| COc1ccc2cccc(CN3C[C@H](O)[C@H](O)[C@H]3CO)c2n1 | 1.3 µM | > 64 µM | – | inactive | inactive | inactive |
| Cc1nc(-c2ccccc2)ncc1CN1C[C@H](O)[C@H](O)[C@H]1CO | 43 µM | > 64 µM | – | inactive | inactive | inactive |
| O=c1ccc2cccc(CN3C[C@H](O)[C@H](O)[C@H]3CO)c2[nH]1 | 187 µM | > 64 µM | – | inactive | inactive | inactive |
| OC[C@@H]1[C@@H](O)[C@@H](O)CN1Cc1cccc2nccnc12 | 0.14 µM | > 64 µM | > 1000 µM | inactive | inactive | inactive |
| OC[C@@H]1[C@@H](O)[C@@H](O)CN1Cc1ccc2ccccc2c1 | 2 µM | > 64 µM | – | inactive | inactive | inactive |
| Nc1ccc2cccc(CN3C[C@H](O)[C@H](O)[C@H]3CO)c2n1 | 8.4 µM | > 64 µM | – | inactive | inactive | inactive |
| OC[C@@H]1[C@@H](O)[C@@H](O)CN1Cc1c[nH]c2ccccc12 | 12 µM | > 64 µM | > 800 µM | inactive | inactive | inactive |
| OC[C@@H]1[C@@H](O)[C@@H](O)CN1Cc1ccc2cccnc2c1 | 0.72 µM | > 64 µM | – | inactive | inactive | inactive |
| N=C(N)NCCN1C[C@H](O)[C@H](O)[C@H]1CO | 286 µM | > 64 µM | – | inactive | inactive | inactive |
| OC[C@@H]1[C@@H](O)[C@@H](O)CN1Cc1cccc2c(Cl)ccnc12 | 0.014 µM | 25 µM | > 1000 µM | inactive | inactive | inactive |
| Cc1cc(N)c2cccc(CN3C[C@H](O)[C@H](O)[C@H]3CO)c2n1 | 71 µM | > 64 µM | – | inactive | inactive | inactive |
| Cc1nn(-c2ccccc2)nc1CN1C[C@H](O)[C@H](O)[C@H]1CO | 0.063 µM | > 64 µM | – | inactive | inactive | inactive |
| OC[C@H]1NC[C@H](O)[C@@H]1O [IMINORIBITOL] | 6 µM | > 64 µM | – | inactive | inactive | inactive |
| N=C(N)c1ccc(CN2C[C@H](O)[C@H](O)[C@H]2CO)cc1 | 6.7 µM | 48 µM | – | inactive | inactive | inactive |
| OC[C@@H]1[C@@H](O)[C@@H](O)CN1Cc1ccccc1 | 58 µM | – | – | inactive | inactive | inactive |

Continued by falling Ki [1], values first:

| Ki [1] | IC50 [2] | Ki [6] | SMILES | Activity [3] | Activity [4] | Activity [5] |
| --- | --- | --- | --- | --- | --- | --- |
| 121 µM | > 64 µM | – | Nc1ncccc1CN1C[C@H](O)[C@H](O)[C@H]1CO | inactive | inactive | inactive |
| 39.9 µM | > 64 µM | – | N=C(N)NCCCN1C[C@H](O)[C@H](O)[C@H]1CO | inactive | inactive | inactive |
| 29 µM | > 64 µM | – | OC[C@@H]1[C@@H](O)[C@@H](O)CN1Cc1ccnc2ccccc12 | inactive | inactive | inactive |
| 26 µM | – | – | N#Cc1ccc(CN2C[C@H](O)[C@H](O)[C@H]2CO)cc1 | inactive | inactive | inactive |
| 23 µM | > 64 µM | – | O=[N+]([O-])c1cccc(CN2C[C@H](O)[C@H](O)[C@H]2CO)c1 | inactive | inactive | inactive |
| 20 µM | – | – | OC[C@@H]1[C@@H](O)[C@@H](O)CN1Cc1ccncc1 | inactive | inactive | inactive |
| 20 µM | > 64 µM | – | OC[C@@H]1[C@@H](O)[C@@H](O)CN1Cc1cnc2ccccc2c1 | inactive | inactive | inactive |
| 18 µM | – | – | CN1C(CCNC(=N)N)[C@H](O)[C@H](O)[C@H]1CO (some centres not stated) | inactive | inactive | inactive |
| 13.1 µM | > 64 µM | > 500 µM | O=c1cc[nH]c2c(CN3C[C@H](O)[C@H](O)[C@H]3CO)cccc12 | inactive | inactive | inactive |
| 7.5 µM | > 64 µM | – | O=[N+]([O-])c1ccc(CN2C[C@H](O)[C@H](O)[C@H]2CO)cc1 | inactive | inactive | inactive |
| 4.3 µM | > 64 µM | – | OC[C@@H]1[C@@H](O)[C@@H](O)CN1Cc1ccc(I)cc1 | inactive | inactive | inactive |
| 3.8 µM | > 64 µM | – | N#Cc1cccc(CN2C[C@H](O)[C@H](O)[C@H]2CO)c1 | inactive | inactive | inactive |
| 3.4 µM | 29 µM | – | OC[C@@H]1[C@@H](O)[C@@H](O)CN1Cc1cccc(-n2cccc2)c1 | inactive | inactive | inactive |
| 1.2 µM | > 64 µM | – | OC[C@@H]1[C@@H](O)[C@@H](O)CN1Cc1ccc(-n2cncn2)cc1 | inactive | inactive | inactive |
| 1.2 µM | > 64 µM | – | OC[C@@H]1[C@@H](O)[C@@H](O)CN1Cc1ccc(-n2cccn2)cc1 | inactive | inactive | inactive |
| 1 µM | 38 µM | – | OC[C@@H]1[C@@H](O)[C@@H](O)CN1Cc1ccc(-n2cccc2)cc1 | inactive | inactive | inactive |
| 1 µM | 49 µM | – | OC[C@@H]1[C@@H](O)[C@@H](O)CN1Cc1ccc2cccc(O)c2n1 | inactive | inactive | inactive |
| 0.75 µM | – | – | OC[C@@H]1[C@@H](O)[C@@H](O)CN1Cc1nccc2ccccc12 | inactive | inactive | inactive |
| 0.37 µM | 22 µM | – | Cc1cc(Cl)c2cccc(CN3C[C@H](O)[C@H](O)[C@H]3CO)c2n1 | inactive | inactive | inactive |
| 0.31 µM | 29 µM | – | OC[C@@H]1[C@@H](O)[C@@H](O)CN1Cc1cccc2ccc(Cl)nc12 | inactive | inactive | inactive |
| 0.18 µM | – | – | OC[C@@H]1[C@@H](O)[C@@H](O)CN1Cc1ccc2ccccc2n1 | inactive | inactive | inactive |
| 0.11 µM | > 64 µM | > 1000 µM | O=c1[nH]cnc2c(CN3C[C@H](O)[C@H](O)[C@H]3CO)cccc12 | inactive | inactive | inactive |
| 0.042 µM | > 64 µM | > 1000 µM | OC[C@@H]1[C@@H](O)[C@@H](O)CN1Cc1csc2cncnc12 | inactive | inactive | inactive |
| 0.015 µM | > 64 µM | > 1000 µM | Nc1ncnc2c(CN3C[C@H](O)[C@H](O)[C@H]3CO)cccc12 | inactive | inactive | inactive |
